Results: the supplement of paper PMC10307832

Legend:
Test in all cases: relative viability (nuclei count vs DMSO), 5 days (fraction); higher = more cells survive
BMX-IN-1 + Dasatinib = compound: C=CC(=O)Nc1cc(-n2c(=O)ccc3cnc4ccc(-c5ccc(NS(C)(=O)=O)cc5)cc4c32)ccc1C [BMX-IN-1] + Cc1nc(Nc2ncc(C(=O)Nc3c(C)cccc3Cl)s2)cc(N2CCN(CCO)CC2)n1 [Dasatinib] (partner 0.075 µM)
In short: (§1)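 Medians of duplicate plates are given as relative viability. That measure is the nuclei count in treated wells divided by the count in vehicle wells. Counts were taken on 4× images of lung cancer cell lines in 1536-well plates, 5 days after pin-tool dosing the day after seeding with one drug alone or a fixed anchor-drug dose plus five library-drug doses (not always all listed) in √10 steps.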

PAC-1 + AZD7762 = compound: C=CCc1cccc(/C=N/NC(=O)CN2CCN(Cc3ccccc3)CC2)c1O [PAC-1] + NC(=O)Nc1cc(-c2cccc(F)c2)sc1C(=O)N[C@H]1CCCNC1 [AZD7762] (partner 0.2 µM)
In short: as §1

Ibrutinib + Olaparib = compound: C=CC(=O)N1CCC[C@@H](n2nc(-c3ccc(Oc4ccccc4)cc3)c3c(N)ncnc32)C1 [Ibrutinib] + O=C(c1cc(Cc2n[nH]c(=O)c3ccccc23)ccc1F)N1CCN(C(=O)C2CC2)CC1 [Olaparib] (partner 8 µM)
In short: as §1

PAC-1 + Navitoclax = compound: C=CCc1cccc(/C=N/NC(=O)CN2CCN(Cc3ccccc3)CC2)c1O [PAC-1] + CC1(C)CCC(c2ccc(Cl)cc2)=C(CN2CCN(c3ccc(C(=O)NS(=O)(=O)c4ccc(N[C@H](CCN5CCOCC5)CSc5ccccc5)c(S(=O)(=O)C(F)(F)F)c4)cc3)CC2)C1 [Navitoclax] (partner 0.5 µM)
In short: as §1

Cell Line | relative viability (BMX-IN-1 + Dasatinib; first compound 0.02 µM) | relative viability (BMX-IN-1 + Dasatinib; first compound 0.2 µM) | relative viability (BMX-IN-1 + Dasatinib; first compound 0.6325 µM) | relative viability (BMX-IN-1 + Dasatinib; first compound 2 µM) | relative viability (PAC-1 + AZD7762; first compound 0.02 µM) | relative viability (PAC-1 + AZD7762; first compound 0.06325 µM) | relative viability (PAC-1 + AZD7762; first compound 0.2 µM) | relative viability (PAC-1 + AZD7762; first compound 2 µM) | relative viability (Ibrutinib + Olaparib; first compound 0.005 µM) | relative viability (Ibrutinib + Olaparib; first compound 0.01581 µM) | relative viability (Ibrutinib + Olaparib; first compound 0.5 µM) | relative viability (PAC-1 + Navitoclax; first compound 0.02 µM) | relative viability (PAC-1 + Navitoclax; first compound 0.06325 µM) | relative viability (PAC-1 + Navitoclax; first compound 0.2 µM) | relative viability (PAC-1 + Navitoclax; first compound 2 µM) | relative viability (Ibrutinib + Olaparib; first compound 0.05 µM) | relative viability (Ibrutinib + Olaparib; first compound 0.1581 µM)
NCI-H2405 | 0.225 | 0.501 | 0.223 | 0.19 | 0.648 | 0.828 | 0.86 | 0.802 | 0.877 | 0.877 | 0.953 | 0.891 | 0.969 | 0.855 | 1.08 |  | 
EBC-1 |  |  |  |  |  |  |  |  | 0.718 | 0.645 | 0.797 | 0.382 | 0.336 | 0.443 | 0.33 | 0.606 | 0.737
NCI-H1734 | 0.463 | 0.504 | 0.476 | 0.467 | 0.515 | 0.615 | 0.532 | 0.546 | 0.57 | 0.629 | 0.592 | 0.826 | 0.832 | 0.813 | 0.881 | 0.788 | 0.67
NCI-H2087 | 1.25 | 0.931 | 1.03 | 0.926 | 1.36 | 1.4 | 1.09 | 1.44 | 0.602 | 0.715 | 0.724 | 1.15 | 0.991 | 0.965 | 0.998 | 0.691 | 
NCI-H1563 | 0.441 | 0.463 | 0.423 | 0.428 |  |  |  |  |  |  |  |  |  |  |  |  | 
SW 900 | 0.568 | 0.835 | 0.521 | 0.714 |  | 0.744 | 0.637 | 0.678 | 0.886 | 0.694 | 0.752 |  |  |  |  | 0.832 | 1.02
A549 |  |  |  |  |  |  |  |  |  | 0.35 | 0.21 | 1.25 | 1.18 | 1.14 | 1.23 | 0.279 | 0.326
NCI-H1793 | 0.417 | 0.432 | 0.479 | 0.451 | 0.501 | 0.587 | 0.547 | 0.568 | 0.669 | 0.562 | 0.4 | 0.453 | 0.46 | 0.535 | 0.461 | 0.582 | 0.833
EKVX | 0.532 | 0.474 | 0.484 | 0.59 | 0.638 | 0.75 | 0.664 | 0.62 | 0.691 | 0.835 | 0.449 | 1.07 | 0.926 | 0.86 | 0.979 | 0.674 | 0.935
NCI-H2126 | 0.624 | 0.645 | 0.616 | 0.601 | 1.04 | 0.993 | 0.963 | 1.05 | 0.879 | 0.899 | 0.747 | 0.884 | 0.886 | 0.87 | 0.854 | 0.88 | 0.905
NCI-H1993 | 0.659 | 0.703 | 0.479 | 0.634 | 0.829 | 0.797 | 0.748 | 0.837 | 0.849 | 0.939 | 0.836 | 0.85 | 0.814 | 0.837 | 0.95 | 1.36 | 1.15
EPLC-272H | 0.354 | 0.266 | 0.393 | 0.314 | 0.177 | 0.295 | 0.134 | 0.22 | 0.708 | 0.597 | 0.455 |  | 1.09 | 1 | 1.04 | 0.49 | 0.79
LU99A | 0.646 | 0.56 | 0.793 | 0.555 | 0.465 | 0.392 | 0.264 | 0.179 | 0.254 | 0.272 | 0.25 | 0.939 | 0.836 | 0.717 | 0.801 | 0.285 | 0.291
NCI-H1299 |  |  |  |  |  |  |  |  | 1 | 0.964 | 0.924 | 1.04 | 1.03 | 1.06 | 1.04 | 0.978 | 0.98
HCC-78 | 0.379 | 0.421 | 0.37 | 0.462 | 0.676 | 0.558 | 0.596 | 0.573 |  | 0.773 | 0.679 | 0.719 | 0.748 | 0.699 | 0.646 | 0.716 | 0.87
HCC-15 | 0.662 | 0.64 | 0.745 | 0.64 | 1.34 | 1.35 | 0.884 | 1.35 | 0.835 | 0.724 | 0.773 | 0.735 | 0.685 | 0.676 | 0.74 | 0.75 | 0.846
201T | 0.659 | 0.681 | 0.687 | 0.567 | 0.625 | 0.59 | 0.571 | 0.567 | 0.844 | 0.848 | 0.793 | 1.21 | 1.23 | 1.21 | 1.16 | 0.841 | 0.816
LCLC-103H | 0.519 | 0.477 | 0.522 | 0.535 | 0.833 | 0.764 | 0.713 | 0.757 | 0.769 | 0.744 | 0.758 |  |  |  |  |  | 0.739
RERF-LC-KJ | 1.08 | 0.883 | 0.82 | 0.939 | 1.08 | 0.883 | 0.934 | 1.01 | 0.994 | 0.863 | 0.868 | 0.859 | 0.932 | 1.11 | 0.733 | 0.89 | 0.965
NCI-H1650 | 0.299 | 0.307 | 0.423 | 0.294 |  |  |  |  | 0.73 | 0.836 | 0.754 | 1.18 | 1.15 | 1.22 | 1.04 | 0.805 | 0.822
NCI-H1355 | 0.772 | 0.777 | 0.768 | 0.785 | 0.634 | 0.721 | 0.795 | 0.785 |  | 0.664 | 0.661 | 0.866 | 0.961 | 0.965 | 0.962 | 0.77 | 0.73
